Values joined by “and” are separate entries in the source; they are usually repeats but may differ in a detail not shown here. Equal values may be shown once.
Experiments:
P-gp [1] = target: T1, P-gp (Homo sapiens, UniProt P08183); experiment: Rhodamine-123 uptake test on K562/DOX cells (flow cytometry); format: cell-based
T1 construct: doxorubicin resistant K562/DOX cell line overexpresses almost exclusively the transporter membrane protein P-gp; endogenous in cells; host or cells: K562/DOX (doxorubicin-selected human erythroleukemia cells)
Experimental: The results were expressed as the FR (fluorescence ratio), which is the ratio between the average fluorescence intensity of rhodamine in the presence and in the absence of modulators. Value 1 was attributed to the average fluorescence intensity of the samples exposed only to rhodamine.
(§1) An aliquot of cells (control) was incubated with the fluorochrome in the absence of inhibitors.
(§2) At the end of the uptake, cells were sedimented, washed twice in ice-cold PBS, placed in PBS on ice, and kept in the dark until flow cytometric analysis.
(§3) The histograms were generated by program GraphPad Prism 5 (GraphPad Prism software, Inc., San Diego, CA, USA); the data were obtained from the ratio between the average fluorescence intensity of the samples preincubated with the compounds under study and subsequently exposed to rhodamine, and the fluorescence of the sample exposed only to the rhodamine.

P-gp [2] = target: T1, P-gp; experiment: Rhodamine-123 uptake test on LoVo/DOX cells (flow cytometry); format: cell-based
Experimental: The selected compounds were preliminary studied at 3, 10 and 30 µM concentrations by the MTT (3-(4,5-dimethylthiazolyl-2)-2,5-diphenyltetrazolium bromide) assay to evaluate their intrinsic cytotoxicity on LoVo/DOX cell line.
as §1, §2, §3

hCA I = target: T2, hCA I (Homo sapiens, UniProt P00915); experiment: Stopped-flow CO2 hydrase assay, hCA I; format: biochemical; details: mean from 3 assays
T2 construct: made in house
Experimental: (§4) An SX.18MV-R Applied Photophysics (Oxford, UK) stopped-flow instrument was used to assay the catalytic/inhibition of various CA isozymes. […] Saturated CO2 solutions in water at 25 °C were used as a substrate. Stock solutions of inhibitors were prepared at a concentration of 10 μM (in DMSO-water 1:1, v/v) and dilutions up to 0.01 nM done with the assay buffer mentioned above. […] Inhibitor and enzyme solutions were preincubated together for 10 min at room temperature prior to the assay, in order to allow for the formation of the E–I complex. […] The inhibition constants were obtained by non-linear least-squares methods using the Cheng–Prusoff equation, as reported earlier, and represent the mean from at least three different determinations. All CA isozymes used here were recombinant proteins obtained as reported earlier by our group.

hCA II = target: T3, hCA II (Homo sapiens, UniProt P00918); experiment: Stopped-flow CO2 hydrase assay, hCA II; format: biochemical; details: for Ki: stopped flow, mean from 3 assays; for hCA II vs. hCA XII preference: ratio of Ki values
T3 construct: made in house
Experimental: as §4

hCA IX = target: T4, hCA IX (Homo sapiens, UniProt Q16790); experiment: Stopped-flow CO2 hydrase assay, hCA IX; format: biochemical; details: for Ki: stopped flow, mean from 3 assays
T4 construct: made in house
Experimental: as §4

hCA XII = target: T5, hCA XII (Homo sapiens, UniProt O43570); experiment: Stopped-flow CO2 hydrase assay, hCA XII; format: biochemical; details: stopped flow, mean from 3 assays
T5 construct: made in house
Experimental: as §4

K562/DOX cells [3] = experiment: Enhancement of doxorubicin cytotoxicity on K562/DOX cells (MTT); format: cell-based, human; details: 72 h
Experimental: (§5) To evaluate the enhancement of doxorubicin toxicity in the presence of the tested compounds, the cells, in exponential growth phase, were seeded at 10^4 cells/well and solutions of either compounds or doxorubicin, or a solution of doxorubicin in combination with the compounds, were added to the wells repeated in quadruplicate. […] The MTT working solution was then added and plates were further incubated for 3 h. Following incubation cells and formazan crystals were inspected microscopically. The supernatant was then carefully removed by slow aspiration and the formazan crystals were dissolved in […] of acidified isopropanol solution. The absorbance of the solution was then read on an automated plate reader at a wavelength of 570 nm. The increase in the toxicity of doxorubicin was quantified by the ratio between the growth of the cell sample treated with IC20 of doxorubicin and that of the cell sample treated with IC20 of doxorubicin in combination with the various concentrations of the tested compounds.

LoVo/DOX cells [4] = experiment: Enhancement of doxorubicin cytotoxicity on LoVo/DOX cells (MTT); format: cell-based, human; details: 72 h
Experimental: as §5

K562/DOX cells [5] = system: K562/DOX cells; parameters: method as in PMID 30947123; details: cited from earlier work
LoVo cells = experiment: Doxorubicin IC50 on parental LoVo cells (MTT); details: Homo sapiens, 72 h, read-out: doxorubicin IC50
Experimental: (§6) For the LoVo/DOX cell line, the doxorubicin growth inhibition was determined by the MTT assay and the IC50 and IC20 values were determined. Approximately 10^4 cells/well were plated onto 96-well plates and allowed to attach for 24 h before treatment with a range of drug concentrations from 3 × 10^−11 to 3 × 10^−5 M for 3 days; each concentration was repeated four times. At the end of the incubation the cells were processed according to the MTT protocol [43] and the optical density of the chromogenic product was measured at 570 nm. IC50 and IC20 values were determined graphically from relative survival curves obtained by GraphPad Prism 5 software (GraphPad, San Diego, CA, USA).
(§7) The resistance index to doxorubicin of the two resistant cell lines was obtained from the ratio between the doxorubicin IC50 (µM) values on the resistant and parental lines.

LoVo/DOX cells [6] = experiment: Doxorubicin IC50 and IC20 evaluation on LoVo/DOX cells (MTT)
Experimental: as §6, §7

[7] = doxorubicin 0.5 µM (IC20) + compound 3 µM
[8] = doxorubicin 0.5 µM (IC20) + compound 10 µM
[9] = doxorubicin 0.3 µM (IC20) + compound 3 µM
[10] = doxorubicin 0.3 µM (IC20) + compound 10 µM

T5 sequence (O43570 25-354): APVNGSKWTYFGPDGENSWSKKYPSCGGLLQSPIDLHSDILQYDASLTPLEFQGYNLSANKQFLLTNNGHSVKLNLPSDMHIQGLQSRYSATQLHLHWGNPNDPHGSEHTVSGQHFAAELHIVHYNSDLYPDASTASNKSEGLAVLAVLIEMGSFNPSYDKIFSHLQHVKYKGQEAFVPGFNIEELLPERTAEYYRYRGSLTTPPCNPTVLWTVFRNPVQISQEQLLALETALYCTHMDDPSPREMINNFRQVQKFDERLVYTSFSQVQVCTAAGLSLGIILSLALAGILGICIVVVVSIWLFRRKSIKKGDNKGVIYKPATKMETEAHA
T2 sequence (P00915 whole entry): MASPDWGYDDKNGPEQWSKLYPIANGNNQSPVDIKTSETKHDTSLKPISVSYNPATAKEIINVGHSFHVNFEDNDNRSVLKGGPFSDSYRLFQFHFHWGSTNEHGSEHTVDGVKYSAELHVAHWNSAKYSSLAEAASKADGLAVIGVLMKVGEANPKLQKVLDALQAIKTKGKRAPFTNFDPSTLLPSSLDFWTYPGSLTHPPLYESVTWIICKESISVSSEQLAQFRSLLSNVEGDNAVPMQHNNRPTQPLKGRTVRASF
T1 sequence (P08183 whole entry): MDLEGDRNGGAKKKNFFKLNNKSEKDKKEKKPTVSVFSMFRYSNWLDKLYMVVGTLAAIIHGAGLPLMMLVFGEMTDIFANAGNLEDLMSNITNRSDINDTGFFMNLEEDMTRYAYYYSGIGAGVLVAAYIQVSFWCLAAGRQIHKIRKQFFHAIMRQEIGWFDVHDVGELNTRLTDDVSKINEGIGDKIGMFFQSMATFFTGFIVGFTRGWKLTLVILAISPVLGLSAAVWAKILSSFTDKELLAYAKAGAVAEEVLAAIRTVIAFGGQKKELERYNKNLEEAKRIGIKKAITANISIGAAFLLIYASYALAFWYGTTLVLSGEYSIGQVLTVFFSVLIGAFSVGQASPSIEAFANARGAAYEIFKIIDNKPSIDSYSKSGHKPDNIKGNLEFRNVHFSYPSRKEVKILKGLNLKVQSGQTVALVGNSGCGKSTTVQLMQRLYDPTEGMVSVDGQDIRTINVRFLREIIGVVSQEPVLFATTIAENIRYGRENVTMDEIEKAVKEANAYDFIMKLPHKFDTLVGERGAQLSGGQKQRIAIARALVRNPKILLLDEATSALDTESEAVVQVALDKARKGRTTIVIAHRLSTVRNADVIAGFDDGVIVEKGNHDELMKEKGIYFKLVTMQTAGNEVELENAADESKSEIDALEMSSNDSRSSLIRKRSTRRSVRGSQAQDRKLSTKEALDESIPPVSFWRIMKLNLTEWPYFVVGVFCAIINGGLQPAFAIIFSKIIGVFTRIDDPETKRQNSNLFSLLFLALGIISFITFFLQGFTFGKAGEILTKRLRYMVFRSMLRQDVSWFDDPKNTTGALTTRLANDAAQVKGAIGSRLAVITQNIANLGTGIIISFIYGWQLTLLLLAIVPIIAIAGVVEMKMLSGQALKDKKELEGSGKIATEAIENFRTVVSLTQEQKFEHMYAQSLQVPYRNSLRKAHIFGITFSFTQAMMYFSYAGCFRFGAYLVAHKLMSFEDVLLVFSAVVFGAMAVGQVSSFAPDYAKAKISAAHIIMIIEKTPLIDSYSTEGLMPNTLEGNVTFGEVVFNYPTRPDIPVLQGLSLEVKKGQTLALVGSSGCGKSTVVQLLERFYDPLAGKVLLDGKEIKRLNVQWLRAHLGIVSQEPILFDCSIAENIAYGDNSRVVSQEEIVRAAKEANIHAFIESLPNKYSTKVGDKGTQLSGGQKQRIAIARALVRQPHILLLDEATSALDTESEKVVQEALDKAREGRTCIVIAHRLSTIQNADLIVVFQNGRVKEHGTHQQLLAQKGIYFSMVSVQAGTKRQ

SMILES	FR (fluorescence ratio, Rhd 123 uptake with/without modulator) (P-gp [1]; compound 3 µM)	FR (fluorescence ratio, Rhd 123 uptake with/without modulator) (P-gp [1]; compound 30 µM)	Ki (hCA I) [nM]	Ki (hCA II) [nM]	Ki (hCA IX) [nM]	Ki (hCA XII) [nM]	Cell Growth (%) (K562/DOX cells [3]; [7])	Cell Growth (%) (K562/DOX cells [3]; [8])	Cell Growth (%) (LoVo/DOX cells [4]; [9])	FR (fluorescence ratio, Rhd 123 uptake) (P-gp [2]; compound 10 µM)	Cell Growth (%) (LoVo/DOX cells [4]; [10])	also measured
COc1cc(C(=O)OCCCCCCCN(C)CCOC(=O)c2ccc(S(N)(=O)=O)cc2)cc(OC)c1OC [Compound 25, 7-(methyl(2-((4-sulfamoylbenzoyl)oxy)ethyl)amino)heptyl 3,4,5-trimethoxybenzoate]	1.44	3.50	42.7	90.2	117	8	80.3 ± 5.9%	76.0 ± 3.7	81.7 ± 2.0%			FR (fluorescence ratio, Rhd 123 uptake) (P-gp [2]; compound 3 µM): negligible
COc1cccc2c1C(=O)c1c(O)c3c(c(O)c1C2=O)C[C@@](O)(C(=O)CO)C[C@@H]3O[C@H]1C[C@H](N)[C@H](O)[C@H](C)O1 [doxo, doxorubicin]												activity at 0.5 µM (K562/DOX cells [3]; Homo sapiens, doxorubicin 0.5 µM alone, read-out: Cell Growth (%)): 80 ± 3.6%; activity at 0.3 µM (LoVo/DOX cells [4]; Homo sapiens, doxorubicin 0.3 µM alone, read-out: Cell Growth (%)): 80 ± 2.5%; IC50 (K562/DOX cells [5]; K562/DOX cells ref 38, read-out: doxorubicin IC50): 2470 ± 250 nM; IC20 (K562/DOX cells [5]; K562/DOX cells, extrapolated from earlier cytotoxicity curves ref 38, read-out: doxorubicin IC20): 500 nM; resistance index to doxorubicin (IC50 resistant/parental) (K562/DOX cells [5]; K562/DOX vs K562 ref 38): 73; IC50 (LoVo cells): 63 ± 6.6 nM; IC50 (LoVo/DOX cells [6]; Homo sapiens, LoVo, 72 h, read-out: doxorubicin IC50): 850 ± 84 nM; IC20 (LoVo/DOX cells [6]; Homo sapiens, LoVo, read-out: doxorubicin IC20): 300 nM; resistance index to doxorubicin (IC50 resistant/parental) (LoVo/DOX cells [6]; LoVo/DOX vs LoVo): 13.5
COc1cc(/C=C/C(=O)OCCCN(C)CCCCCOC(=O)COc2ccc3ccc(=O)oc3c2)cc(OC)c1OC [Compound 2, (E)-3-(methyl(5-(2-((2-oxo-2H-chromen-7-yl)oxy)acetoxy)pentyl)amino)propyl 3-(3,4,5-trimethoxyphenyl)acrylate]	1.57	5.81	> 10000	> 10000	47.4	8.9	85.6 ± 4.7%	65.0 ± 5.2	82.7 ± 10.2%	10.50	41.5% and 41.5 ± 7.3%	
COc1cc(/C=C/C(=O)OCCCCCCN(C)CCCOC(=O)COc2ccc3ccc(=O)oc3c2)cc(OC)c1OC [Compound 5, (E)-6-(methyl(3-(2-((2-oxo-2H-chromen-7-yl)oxy)acetoxy)propyl)amino)hexyl 3-(3,4,5-trimethoxyphenyl)acrylate]	3.67	5.85	> 10000	> 10000	26.7	6.4	51.7% and 51.7 ± 3.0%		58.0% and 58.0 ± 2.4%	6.30	51.0% and 51.0 ± 1.9%	
COc1cc(/C=C/C(=O)OCCCCCCCN(C)CCCCCCCOC(=O)COc2ccc3ccc(=O)oc3c2)cc(OC)c1OC [Compound 8, (E)-7-(methyl(7-(2-((2-oxo-2H-chromen-7-yl)oxy)acetoxy)heptyl)amino)heptyl 3-(3,4,5-trimethoxyphenyl)acrylate]	2.33	4.15	> 10000	> 10000	24.2	7.1	82.0 ± 5.9%		68.0% and 68.0 ± 2.9%	9.90	32.2% and 32.2 ± 10.7%	
COc1cc(/C=C/C(=O)OCCCCCCCN(C)CCOC(=O)COc2ccc3ccc(=O)oc3c2)cc(OC)c1OC [Compound 7, (E)-7-(methyl(2-(2-((2-oxo-2H-chromen-7-yl)oxy)acetoxy)ethyl)amino)heptyl 3-(3,4,5-trimethoxyphenyl)acrylate]	2.08	4.48	> 10000	> 10000	29.7	9.1	78.1 ± 4.9%		61.0% and 61.0 ± 3.3%	12.60	34.9% and 34.9 ± 8.1%	
COc1ccc(CCN(C)CCCC(C#N)(c2ccc(OC)c(OC)c2)C(C)C)cc1OC (stereo not drawn) [Ver, verapamil, reference compound]							69.0 ± 0.03%	62.0 ± 0.1	54.0 ± 0.06%		51.0 ± 0.09%	Cell Growth (%) (LoVo/DOX cells [4]; doxorubicin 0.3 µM (IC20) + compound 10 µM, listed as verapamil): 51.0%

Second part, led by results:

FR (fluorescence ratio, Rhd 123 uptake with/without modulator) (P-gp [1]; compound 3 µM)	FR (fluorescence ratio, Rhd 123 uptake with/without modulator) (P-gp [1]; compound 30 µM)	Ki (hCA I) [nM]	Ki (hCA II) [nM]	Ki (hCA IX) [nM]	Ki (hCA XII) [nM]	SMILES	Cell Growth (%) (K562/DOX cells [3]; [7])	Cell Growth (%) (K562/DOX cells [3]; [8])	Cell Growth (%) (LoVo/DOX cells [4]; [9])	FR (fluorescence ratio, Rhd 123 uptake) (P-gp [2]; compound 10 µM)	Cell Growth (%) (LoVo/DOX cells [4]; [10])	also measured
2.10	4.45	339	81.2	241	23.4	CN(CCCCCOC(=O)c1ccc(S(N)(=O)=O)cc1)CCCOC(=O)c1c2ccccc2cc2ccccc12 [Compound 26, 3-(methyl(5-((4-sulfamoylbenzoyl)oxy)pentyl)amino)propyl anthracene-9-carboxylate]	77.9 ± 6.1%	74.0 ± 2.6	82.0 ± 2.0%		58.2 ± 5.9%	FR (fluorescence ratio, Rhd 123 uptake) (P-gp [2]; compound 3 µM): negligible
1.30	3.70	533	48.9	68.4	35.2	COc1cc(/C=C/C(=O)OCCCCCCCN(C)CCOC(=O)c2ccc(S(N)(=O)=O)cc2)cc(OC)c1OC [Compound 21, (E)-2-(methyl(7-((3-(3,4,5-trimethoxyphenyl)acryloyl)oxy)heptyl)amino)ethyl 4-sulfamoyl benzoate]	78.8 ± 10.2%	68.7 ± 3.6	82.0 ± 2.7%		59.0 ± 3.3%	FR (fluorescence ratio, Rhd 123 uptake) (P-gp [2]; compound 3 µM): negligible
1.42	2.88	83.5	8.9	25.3	57.6	COc1cc(C(=O)OCCCCCCN(C)CCCOC(=O)c2ccc(S(N)(=O)=O)cc2)cc(OC)c1OC [Compound 24, 6-(methyl(3-((4-sulfamoylbenzoyl)oxy)propyl)amino)hexyl 3,4,5-trimethoxybenzoate]						hCA II vs. hCA XII preference (hCA II): 6.5 times; more potent on hCA IX than on hCA XII (hCA IX; ratio of Ki values): twice
1.45	4.25	238	475	20.6	23.5	CN(CCCCCCCOC(=O)c1c2ccccc2cc2ccccc12)CCOC(=O)c1ccc(S(N)(=O)=O)cc1 [Compound 28, 7-(methyl(2-((4-sulfamoylbenzoyl)oxy)ethyl)amino)heptyl anthracene-9-carboxylate]						
1.06	3.23	510	8.4	39.7	58.6	COc1cc(/C=C/C(=O)OCCCCCCN(C)CCCOC(=O)c2ccc(S(N)(=O)=O)cc2)cc(OC)c1OC [Compound 19, (E)-3-(methyl(6-((3-(3,4,5-trimethoxyphenyl)acryloyl)oxy)hexyl)amino)propyl 4-sulfamoyl benzoate]						hCA II vs. hCA XII preference (hCA II): 7 times

From PMC7181201, “Dual P-Glycoprotein and CA XII Inhibitors: A New Strategy to Reverse the P-gp Mediated Multidrug Resistance (MDR) in Cancer Cells” (Molecules, 2020)
